The source of these data is patent US20110212891A1 (MSD K.K., priority 2008, published 2011).

Each structure is given as a SMILES string. pIC50: −log10 of the molar value.

The first assay has as its target T1, Human DGAT1 (Homo sapiens, UniProt O75907).
T1 construct: made in house; host or cells: Pichia pastoris (printed 'Pichia pastris'), vector pPICZA; the membrane fraction served as enzyme source
T1 sequence (O75907 1-488): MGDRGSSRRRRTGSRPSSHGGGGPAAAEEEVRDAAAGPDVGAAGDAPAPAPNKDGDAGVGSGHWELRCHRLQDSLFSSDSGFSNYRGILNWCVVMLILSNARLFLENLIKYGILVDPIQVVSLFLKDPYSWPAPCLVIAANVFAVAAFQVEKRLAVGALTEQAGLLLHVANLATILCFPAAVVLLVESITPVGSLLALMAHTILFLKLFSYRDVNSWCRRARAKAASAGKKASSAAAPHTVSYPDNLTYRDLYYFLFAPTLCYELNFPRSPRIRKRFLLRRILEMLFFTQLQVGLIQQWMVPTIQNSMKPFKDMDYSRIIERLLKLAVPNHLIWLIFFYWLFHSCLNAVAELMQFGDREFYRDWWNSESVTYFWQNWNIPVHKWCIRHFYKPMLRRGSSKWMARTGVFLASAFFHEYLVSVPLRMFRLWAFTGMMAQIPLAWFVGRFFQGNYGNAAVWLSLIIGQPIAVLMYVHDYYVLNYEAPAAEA
Briefly: DGAT1 Inhibitory Activity Test ([14C]-oleoyl-CoA, DGAT1-expressed yeast membrane fraction). It is filed as biochemical. Particulars: Table 5, room temperature, 30 minutes. The protocol: Human DGAT1 genes were amplified by PCR using primers described below from human cDNA library (Clontech).
The amplified human DGAT1 genes were introduced into a yeast expression vector pPICZA (Invitrogen). The resultant expression plasmid was introduced into a yeast (Pichia pastris) by electroporation to produce a recombinant yeast. The recombination yeast was cultured in the presence of 0,5% methanol for 72 hours, and the cells were crushed using glass beads in 10 mM Tris pH 7.5, 250 mM sucrose and 1 mM EDTA, followed by adjusting the membrane fraction by centrifugation to use the adjusted membrane fraction as an enzyme source.
To the reaction liquid having the following composition: 100 mM Tris pH 7.5, 100 mM MgCl2, 100 mM sucrose, 40 μM dioelin, 15 μm [^14C]-oleoyl-CoA, 0.25 μg of test substance, DGAT1-expressed yeast membrane fraction, was added, and the mixture having a volume of 100 μl was incubated at room temperature for 30 minutes. To the reaction liquid, 100 μl of 2-propanol/heptan/H2O (80:20:2) was added, the mixture was stirred well, followed by adding 200 μl of heptane and further stirring the mixture. After centrifugation, the heptane layer was collected, ethanol/0.1N NaOH/H2O (50:5:45) was added, the mixture was thus stirred, followed by recentrifuging the mixture and collecting the heptane layer. After exsiccation of the obtained heptane layer, 100 μl of Microscint 0 (PerkinElmer) was added, and the radioactivity was measured with a liquid scintillation counter. The inhibitory activity was calculated from the following formula:
Inhibition rate=100−(radioactivity in case of addition of test compound−background)/(radioactivity in case of addition of no test compound−background)×100
wherein the background means the radioactivity in case of addition of no membrane fraction.
Take `O=C1C(NC(=O)C2(NC(=O)C3(C(F)(F)F)CC3)CC2)CCc2cc(OC(F)(F)F)ccc2N1Cc1cc(C(F)(F)F)cc(C(F)(F)F)c1` (single isomer, unassigned) [Example 41 Enantiomer A, N-[1-({[1-[3,5-bis(trifluoromethyl)benzyl]-2-oxo-7-(trifluoromethoxy)-2,3,4,5-tetrahydro-1H-1-benzazepin-3-yl]amino}carbonyl)cyclopropyl]-1-(trifluoromethyl)cyclopropane carboxyamide]: the pIC50 is 6.86.

On to `O=C1C(NC(=O)C2(NC(=O)C3(C(F)(F)F)CC3)CC2)CCc2cc(OC(F)(F)F)ccc2N1Cc1cc(C(F)(F)F)cc(C(F)(F)F)c1` (single isomer, unassigned) [Example 41 Enantiomer B, N-[1-({[1-[3,5-bis(trifluoromethyl)benzyl]-2-oxo-7-(trifluoromethoxy)-2,3,4,5-tetrahydro-1H-1-benzazepin-3-yl]amino}carbonyl)cyclopropyl]-1-(trifluoromethyl)cyclopropane carboxyamide], for which the negative logarithm of the IC50 (pIC50) was 6.07.

In the case of `CC(C)(C)OC(=O)NC1(C(=O)NC2CCc3ccccc3N(Cc3ccc(OC(F)(F)F)cc3)C2=O)CCC1` (single isomer, unassigned) [Example 46 Enantiomer A, tert-butyl{1-[({2-oxo-1-[4-(trifluoromethoxy)benzyl]-2,3,4,5-tetrahydro-1H-1-benzazepin-3-yl}amino)carbonyl]cyclobutyl}carbamate], the pIC50 was 6.72.

`CC(C)(C)OC(=O)NC1(C(=O)NC2CCc3ccccc3N(Cc3ccc(OC(F)(F)F)cc3)C2=O)CCC1` (single isomer, unassigned) [Example 46 Enantiomer B, tert-butyl{1-[({2-oxo-1-[4-(trifluoromethoxy)benzyl]-2,3,4,5-tetrahydro-1H-1-benzazepin-3-yl}amino)carbonyl]cyclobutyl}carbamate]: the pIC50 is 7.85.

On to `CC(C)(C)OC(=O)NC1(C(=O)NC2CCc3ccccc3N(Cc3ccc(OC(F)(F)F)cc3)C2=O)CCCC1` (single isomer, unassigned) [Example 47 Enantiomer A], for which the pIC50 is 6.82.

On to `CC(C)(C)OC(=O)NC1(C(=O)NC2CCc3ccccc3N(Cc3ccc(OC(F)(F)F)cc3)C2=O)CCCC1` (single isomer, unassigned) [Example 47 Enantiomer B], for which the negative-log IC50 (pIC50) is 7.68.

Regarding `O=C(NC1(C(=O)N[C@@H]2CC(=O)c3ccccc3N(Cc3cc(C(F)(F)F)cc(C(F)(F)F)c3)C2=O)CC1)c1ccc(F)c(F)n1` [Example 8], the pIC50 was 7.07.

As for `CC(C)(C)OC(=O)NC1(C(=O)N[C@H]2CC(=O)c3ccccc3N(Cc3ccc(-c4ccccc4)cc3)C2=O)CC1` [Example 21], the pIC50 is 7.62.

The assay is the same for the next values; noted with them: Table 6, room temperature, 30 minutes.
For the compound `O=C(NC1(C(=O)N[C@@H]2CC(=O)c3ccccc3N(Cc3cc(C(F)(F)F)cc(C(F)(F)F)c3)C2=O)CC1)c1nccs1` [Example 50, N-{1-[({(3R)-1-[3,5-bis(trifluoromethyl)benzyl]-2,5-dioxo-2,3,4,5-tetrahydro-1H-1-benzazepin-3-yl}amino)carbonyl}cyclopropyl}-1,3-thiazole-2-carboxamide], the pIC50 was 7.19.

With `CC(C)(C)OC(=O)NC1(C(=O)N[C@@H]2CC(=O)c3ccccc3N(Cc3cc(C(F)(F)F)cc(C(F)(F)F)c3)C2=O)CCC1` [Example 51, tert-butyl{1-[({(3R)-1-[3,5-bis(trifluoromethyl)benzyl]-2,5-dioxo-2,3,4,5-tetrahydro-1H-1-benzazepin-3-yl}amino)carbonyl]cyclobutyl}carbamate], the pIC50 was 7.39.

Take `O=C(NC1(C(=O)N[C@@H]2CC(=O)c3ccccc3N(Cc3cc(C(F)(F)F)cc(C(F)(F)F)c3)C2=O)CCC1)c1nccs1` [Example 52, N-{1-[({(3R)-1-[3,5-bis(trifluoromethyl)benzyl]-2,5-dioxo-2,3,4,5-tetrahydro-1H-1-benzazepin-3-yl}amino)carbonyl]cyclobutyl}-1,3-thiazole-2-carboxamide]: the pIC50 was 6.60.

For the compound `O=C(NC1(C(=O)N[C@@H]2CC(=O)c3ccccc3N(Cc3cc(C(F)(F)F)cc(C(F)(F)F)c3)C2=O)CCC1)c1ccc(F)cc1` [Example 53, N-{1-[({(3R)-1-[3,5-bis(trifluoromethyl)benzyl]-2,5-dioxo-2,3,4,5-tetrahydro-1H-1-benzazepin-3-yl}amino)carbonyl]cyclobutyl}-4-fluorobenzamide], the pIC50 was 7.11.
